Earlier results in patent US20260108469A1, “COMPOSITIONS COMPRISING WATER INSOLUBLE DRUGS AND METHODS OF PRODUCING AND USING SAME” (priority 2023, published 2026).

Compound | solubility in water-based solutions | solubility in water (water) [mg/mL]
CCc1c2c(nc3ccc(O)cc13)-c1cc3c(c(=O)n1C2)COC(=O)[C@]3(O)CC [SN-38, 7-ethyl-10-hydroxycamptothecin] | not soluble in water-based solutions | –
CVKRGLKLRHVRPRVTRMDV (cell penetrating peptide (CPP)) [20 amino acid cell penetrating peptide, DPV1047 with an added N-terminal Cys] | – | > 500
